Source: patent US12485132B2, “GPX4 inhibitors and senolytic compounds and uses thereof” (Rubedo Life Sciences, Inc., priority 2023, dated 2025)

Legend:
A549 cells = assay: Lipid peroxidation assay by flow cytometry (BODIPY 581/591 C11); format: cell-based, human; conditions: 0.02, 0.2 and 2 μm, 18.5 hours
Method: Inhibition of the cellular activity of GPX4 can be estimated by changes in lipid peroxidation levels that can be detected by the oxidation of BODIPY 581/591 C11, a ratiometric fluorescent indicator reacting with free radicals produced during membrane peroxidation (Drummen et al., Free Radic Biol Med 2002 33 (4): 473-90; and Martinez et al., Methods Mol Biol 2020 2018:125-130). For a lipid peroxidation assay by flow cytometry, A549 cells were seeded at 333,000 cells per well in 12-well plates. On the following day, culture media was replaced with 1 mL media containing either DMSO or compound 32 (0.02, 0.2 and 2 μm), and cultures were incubated at 37° C. for 18.5 hours. Thirty minutes before the end of the incubation period, 2 μm BODIPY 581/591 C11 (D3861, Invitrogen) was added to cells. Following cell collection by trypsinization, cells were subjected to flow cytometry analysis (BD FACSAria), and gated for the live cell population, which was analyzed for fluorescence signal associated with the oxidized state of BODIPY 581/591 C11. The results are illustrated in FIG. 4.

senescent HEPG2 cells = assay: Senescence assay: viability of senescent HEPG2 cells; format: cell-based; conditions: Homo sapiens, 24-72 hours incubation, viability by CellTiter-Glo or XTT, read-out: Absolute IC50 average HEPG2_SEN IC50
Outline: (§1)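 A549 and HEPG2 cells made senescent by sublethal chemotherapy (bleomycin, gemcitabine, doxorubicin or 5-fluorouridine) plus recovery, verified by low EdU and high SA-β-Gal. Ten-point duplicate dosing for 24-72 h; viability by CellTiter-Glo or XTT versus untreated cells; absolute IC50 from four-parameter Hill fit.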

senescent A549 cells = assay: Senescence assay: viability of senescent A549 cells; format: cell-based; conditions: Homo sapiens, 24-72 hours incubation, viability by CellTiter-Glo or XTT, read-out: Absolute IC50 average A549_SEN IC50
Outline: as §1

GPX4 = target: T1, GPX4 (Homo sapiens, UniProt P36969); assay: Competitive binding to GPX4 in A549 cells with biotinylated analog, streptavidin pull-down; format: cell-based; set-up: host or cells: A549; conditions: 2 μM for 2 hours before 2 μM compound 21 for 5 hours
T1 sequence (P36969 1-197): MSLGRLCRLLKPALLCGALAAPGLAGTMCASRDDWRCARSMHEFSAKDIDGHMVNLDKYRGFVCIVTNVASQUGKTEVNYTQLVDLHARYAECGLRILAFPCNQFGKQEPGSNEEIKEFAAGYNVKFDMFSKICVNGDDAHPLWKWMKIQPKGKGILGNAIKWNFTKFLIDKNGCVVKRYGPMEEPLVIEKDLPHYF
Method: Binding of compounds 32 and 69 to the target protein GPX4 in cultured cells can be assessed by the use of biotinylated analogs such as compound 21 that retain their cellular activities. Cells or tissue simultaneously or sequentially exposed to compounds 32 and 69 and biotinylated analog 21 can be analyzed for exogenous biotinylated proteins and thereby enables the identification of cellular targets of compounds 32 and 69. The A549 cancer cell line (ATCC) was exposed to 2 μM of compounds 32 and 69 for 2 hours followed by the addition of 2 μM of compound 21 for 5 hours. Cells were collected and lysed by IGEPAL CA-630 and sodium dodecyl sulfate (SDS) in the presence of a protease inhibitor cocktail (4693132001, Roche). The soluble protein fraction was isolated and incubated with Streptavidin Mag Sepharose (28-9857-38, Cytiva) at 4° C. for 16 hours. The streptavidin-unbound fraction was collected allowing for the quantification of the proportion of GPX4 depleted by the biotinylated compound 21 relative to samples not treated with Streptavidin Mag Sepharose. Furthermore, biotinylated proteins were eluted from Streptavidin Mag Sepharose by head-denaturation in the presence of excess biotin (5 mM). […] Chemiluminescent following HRP substrate addition (34580, ThermoFisher) was detected by the ChemiDoc XRS+ System (Bio-Rad). […]

SMILES: C#CC(F)(F)[C@]1(O)CC[C@H]2[C@@H]3CCC4=CC(=NNC(=O)NC5CC5)CCC4=C3[C@H](c3ccc(C4CC4)cc3)C[C@@]21C [Compound 32, N-cyclopropyl-2-((8S,11S,13S,14S,17S)-11-(4-cyclopropylphenyl)-17-(1,1-difluoroprop-2-yn-1-yl)-17-hydroxy-13-methyl-1,2,6,7,8,11,12,13,14,15,16,17-dodecahydro-3H-cyclopenta[a]phenanthren-3-ylidene)hydrazine-1-carboxamide]
- cellular lipid peroxidation (oxidized BODIPY 581/591 C11 signal) (A549 cells): induced markers of cellular lipid peroxidation
- IC50 (senescent HEPG2 cells): 0.1 to 10 nM
- IC50 (senescent A549 cells): 0.1 to 10 nM
- effect of pre-treatment on compound 21 dependent depletion of GPX4 protein (GPX4): reduces the compound 21 dependent depletion of GPX4 protein
